Data: US5219848A, “Cephem compounds” (ICI Pharma, priority 1989, dated 1993)

What was measured:
Assay type in all cases: cell-based
Parameters in all cases: unit not given here
Conditions in all cases: Isosensitest agar, 10^4 CFU/spot
[1] = test system: P. aeruginosa PU21 (A8101028); assay: MIC by agar-dilution, P. aeruginosa PU21 (A8101028)
Source text: (§1) The following results were obtained for representative compounds on a standard in vitro test system using Isosensitest agar medium. The antibacterial activity is described in terms of the minimum inhibitory concentration (MlC) determined by the agar-dilution technique with an inoculum size of 10^4 CFU/spot.

[2] = test system: Ent. cloacae P99 (A8401054); assay: MIC by agar-dilution, Ent. cloacae P99 (A8401054)
Source text: as §1

[3] = test system: Serr. marcesens (A8421003); assay: MIC by agar-dilution, Serr. marcesens (A8421003)
Source text: as §1

[4] = test system: Pr. morganii (A8433001); assay: MIC by agar-dilution, Pr. morganii (A8433001)
Source text: as §1

[5] = test system: Kleb. oxytoca (A8395055); assay: MIC by agar-dilution, Kleb. oxytoca (A8395055)
Source text: as §1

[6] = test system: E. coli DCO (A8341098); assay: MIC by agar-dilution, E. coli DCO (A8341098)
Source text: as §1

[7] = test system: St. aureus 147N (A8601052); assay: MIC by agar-dilution, St. aureus 147N (A8601052)
Source text: as §1

[8] = test system: S. dublin (A8369001); assay: MIC by agar-dilution, S. dublin (A8369001)
Source text: as §1

[9] = test system: Strep. pyogenes (A681018); assay: MIC by agar-dilution, Strep. pyogenes (A681018)
Source text: as §1

## 7-[2-(2-Aminothiazol-4-yl)-2-((Z)-1-carboxy-1-methylethoxyimino)acetamido]- 3-(8-bromo-6,7-dihydroxy-3-oxo-tetrahydroisoquinolin-2-ylmethyl)ceph-3-em-4-carboxylic acid [Example 8]
[1]
  MIC: 0.008
[2]
  MIC: 0.125
[3]
  MIC: 0.06
[4]
  MIC: 0.25
[5]
  MIC: 0.015
[6]
  MIC: 0.008
[7]
  MIC: 8
[8]
  MIC: 0.03
[9]
  MIC: 0.06
